Source: US12629371B2, “Compositions and methods for inhibiting kinases” (Inhibikase Therapeutics, Inc., priority 2016, dated 2026)
Where two headings read alike, the source gives them in different places.

Tests used:
Assay type in all cases: biochemical
ARG/Abl2 = ARG/Abl2 (Homo sapiens, UniProt P42684); test: Inhibition profile at 500 nM: ARG/Abl2; conditions: 500 nM test compound
Experimental: (§1) Then enzyme substrate is added as 10 μl of 2.5×FAM-labeled peptide+ATP solution to each well of the 384-well assay plate The reaction is allowed to proceed at 28° C. and quenched with the addition of 25 μl of stop buffer. The release of fluorescent FAM is quantitated as Percent inhibition=(max−conversion)/(max−min)*100.sp; “max” stands for DMSO control; “min” stands for low control. Convert conversion values to inhibition values. Percent inhibition=(max−conversion)/(max−min)*100. “max” stands for DMSO control; “min” stands for low control.

PDGFRa = PDGFRa (Homo sapiens, UniProt P16234); test: Inhibition profile at 500 nM: PDGFRa; conditions: 500 nM test compound, read-out: Percent inhibition PDGFRa
Experimental: as §1

FLT3 = FLT3 (Homo sapiens, UniProt P36888); test: Inhibition profile at 500 nM: FLT3; conditions: 500 nM test compound, read-out: Percent inhibition FLT3
Experimental: as §1

KIT = KIT (Homo sapiens, UniProt P10721); test: Inhibition profile at 500 nM: KIT; conditions: 500 nM test compound; Table 1; read-out: Percent inhibition KIT
Experimental: as §1

LCK = LCK (Homo sapiens, UniProt P06239); test: Inhibition profile at 500 nM: LCK; conditions: 500 nM test compound, read-out: Percent inhibition LCK
Experimental: as §1

ABL = ABL (Homo sapiens, UniProt P00519); test: Inhibition profile at 500 nM: ABL / Abl1; conditions: 500 nM test compound; Table 1; read-out: Percent inhibition ABL
Experimental: as §1

SRC = SRC (Homo sapiens, UniProt P12931); test: Inhibition profile at 500 nM: SRC; conditions: 500 nM test compound, read-out: Percent inhibition SRC
Experimental: as §1

FYN = FYN (Homo sapiens, UniProt P06241); test: Inhibition profile at 500 nM: FYN; conditions: 500 nM test compound, read-out: Percent inhibition FYN
Experimental: as §1

JNK2 = JNK2 (Homo sapiens, UniProt P45984); test: Inhibition profile at 500 nM: JNK2; conditions: 500 nM test compound, read-out: Percent inhibition JNK2
Experimental: as §1

FES = FES (Homo sapiens, UniProt P07332); test: Inhibition profile at 500 nM: FES; conditions: 500 nM test compound, read-out: Percent inhibition FES
Experimental: as §1

LYNA = LYNA (Homo sapiens, UniProt P07948); test: Inhibition profile at 500 nM: LYNA; conditions: 500 nM test compound, read-out: Percent inhibition LYNA
Experimental: as §1

PDGFRb = PDGFRb (Homo sapiens, UniProt P09619); test: Inhibition profile at 500 nM: PDGFRb; conditions: 500 nM test compound, read-out: Percent inhibition PDGFRb
Experimental: as §1

FGR = FGR (Homo sapiens, UniProt P09769); test: Inhibition profile at 500 nM: FGR; conditions: 500 nM test compound, read-out: Percent inhibition FGR
Experimental: as §1

YES = YES (Homo sapiens, UniProt P07947); test: Inhibition profile at 500 nM: YES; conditions: 500 nM test compound; Table 2; read-out: Percent inhibition YES
Experimental: as §1

JNK1 = JNK1 (Homo sapiens, UniProt P45983); test: Inhibition profile at 500 nM: JNK1; conditions: 500 nM test compound; Table 2; read-out: Percent inhibition JNK1
Experimental: as §1

CMT = test: Inhibition profile at 500 nM: CMT; conditions: 500 nM test compound; Table 2
Experimental: as §1

FGR, sequence (P09769 whole entry): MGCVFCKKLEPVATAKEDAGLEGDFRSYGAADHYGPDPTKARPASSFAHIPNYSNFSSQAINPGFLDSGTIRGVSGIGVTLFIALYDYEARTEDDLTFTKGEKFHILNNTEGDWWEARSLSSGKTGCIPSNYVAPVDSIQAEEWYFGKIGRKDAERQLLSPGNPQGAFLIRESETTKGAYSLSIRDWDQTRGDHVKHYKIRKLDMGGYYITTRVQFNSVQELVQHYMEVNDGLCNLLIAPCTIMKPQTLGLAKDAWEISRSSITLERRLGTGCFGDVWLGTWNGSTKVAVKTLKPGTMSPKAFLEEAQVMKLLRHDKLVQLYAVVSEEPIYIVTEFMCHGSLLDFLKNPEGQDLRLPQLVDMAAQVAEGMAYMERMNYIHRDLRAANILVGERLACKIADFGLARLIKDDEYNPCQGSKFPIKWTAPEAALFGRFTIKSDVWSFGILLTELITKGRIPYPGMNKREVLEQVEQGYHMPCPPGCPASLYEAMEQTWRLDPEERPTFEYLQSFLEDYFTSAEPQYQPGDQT
PDGFRa, sequence (P16234 24-1089): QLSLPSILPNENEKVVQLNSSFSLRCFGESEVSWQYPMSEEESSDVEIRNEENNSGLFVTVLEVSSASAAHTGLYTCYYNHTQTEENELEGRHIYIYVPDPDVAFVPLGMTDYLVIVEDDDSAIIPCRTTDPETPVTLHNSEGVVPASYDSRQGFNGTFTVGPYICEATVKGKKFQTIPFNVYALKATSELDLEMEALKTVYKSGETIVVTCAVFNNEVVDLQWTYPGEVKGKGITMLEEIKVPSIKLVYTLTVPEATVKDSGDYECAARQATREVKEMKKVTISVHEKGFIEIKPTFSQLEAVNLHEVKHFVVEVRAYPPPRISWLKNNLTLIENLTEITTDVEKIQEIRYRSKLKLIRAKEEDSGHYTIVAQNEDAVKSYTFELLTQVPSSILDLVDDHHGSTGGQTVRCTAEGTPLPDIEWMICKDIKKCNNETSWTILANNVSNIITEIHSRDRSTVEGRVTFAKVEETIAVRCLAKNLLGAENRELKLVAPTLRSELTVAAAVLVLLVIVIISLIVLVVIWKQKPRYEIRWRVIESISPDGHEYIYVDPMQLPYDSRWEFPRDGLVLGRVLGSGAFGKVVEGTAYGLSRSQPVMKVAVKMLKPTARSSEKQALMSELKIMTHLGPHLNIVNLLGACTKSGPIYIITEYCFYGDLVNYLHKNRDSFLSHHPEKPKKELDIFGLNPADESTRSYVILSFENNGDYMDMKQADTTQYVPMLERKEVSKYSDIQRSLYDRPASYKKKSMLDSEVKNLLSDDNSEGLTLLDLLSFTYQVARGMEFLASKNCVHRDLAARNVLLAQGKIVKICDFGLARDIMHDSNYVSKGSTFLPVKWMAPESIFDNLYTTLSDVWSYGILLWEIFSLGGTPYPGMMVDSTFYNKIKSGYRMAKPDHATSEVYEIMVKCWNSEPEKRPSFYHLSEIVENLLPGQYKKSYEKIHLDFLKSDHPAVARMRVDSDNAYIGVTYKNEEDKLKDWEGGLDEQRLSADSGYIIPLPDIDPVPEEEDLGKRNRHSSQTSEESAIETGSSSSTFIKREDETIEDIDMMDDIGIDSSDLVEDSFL
LCK, sequence (P06239 whole entry): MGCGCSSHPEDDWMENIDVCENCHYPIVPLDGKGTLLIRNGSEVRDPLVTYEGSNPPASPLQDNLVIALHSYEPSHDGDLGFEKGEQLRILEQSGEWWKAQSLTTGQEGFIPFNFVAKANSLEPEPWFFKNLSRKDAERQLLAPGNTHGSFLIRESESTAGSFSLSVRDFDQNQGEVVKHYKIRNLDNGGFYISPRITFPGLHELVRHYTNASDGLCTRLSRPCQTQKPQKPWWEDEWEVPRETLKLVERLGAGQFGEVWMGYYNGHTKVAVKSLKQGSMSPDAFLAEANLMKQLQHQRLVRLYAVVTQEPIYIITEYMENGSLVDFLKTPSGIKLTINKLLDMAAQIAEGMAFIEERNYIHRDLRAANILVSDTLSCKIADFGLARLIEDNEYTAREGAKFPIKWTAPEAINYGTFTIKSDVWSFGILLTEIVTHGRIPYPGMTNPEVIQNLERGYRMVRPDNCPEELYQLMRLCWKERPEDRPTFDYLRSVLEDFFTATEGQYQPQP
SRC, sequence (P12931 whole entry): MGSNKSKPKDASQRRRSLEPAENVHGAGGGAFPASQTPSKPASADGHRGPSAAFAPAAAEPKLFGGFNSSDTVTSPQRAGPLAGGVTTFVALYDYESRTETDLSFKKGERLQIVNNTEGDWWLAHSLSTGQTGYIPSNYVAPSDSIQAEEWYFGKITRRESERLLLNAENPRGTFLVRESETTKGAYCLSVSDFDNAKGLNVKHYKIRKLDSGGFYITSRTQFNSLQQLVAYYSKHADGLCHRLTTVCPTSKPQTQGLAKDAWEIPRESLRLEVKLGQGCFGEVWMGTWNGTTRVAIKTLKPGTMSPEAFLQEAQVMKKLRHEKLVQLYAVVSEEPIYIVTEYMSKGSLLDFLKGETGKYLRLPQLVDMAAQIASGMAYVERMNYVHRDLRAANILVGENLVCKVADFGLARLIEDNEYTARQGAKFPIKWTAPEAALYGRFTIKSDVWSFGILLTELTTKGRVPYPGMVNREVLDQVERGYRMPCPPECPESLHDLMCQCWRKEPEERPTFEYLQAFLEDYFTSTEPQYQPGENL
PDGFRb, sequence (P09619 33-1106): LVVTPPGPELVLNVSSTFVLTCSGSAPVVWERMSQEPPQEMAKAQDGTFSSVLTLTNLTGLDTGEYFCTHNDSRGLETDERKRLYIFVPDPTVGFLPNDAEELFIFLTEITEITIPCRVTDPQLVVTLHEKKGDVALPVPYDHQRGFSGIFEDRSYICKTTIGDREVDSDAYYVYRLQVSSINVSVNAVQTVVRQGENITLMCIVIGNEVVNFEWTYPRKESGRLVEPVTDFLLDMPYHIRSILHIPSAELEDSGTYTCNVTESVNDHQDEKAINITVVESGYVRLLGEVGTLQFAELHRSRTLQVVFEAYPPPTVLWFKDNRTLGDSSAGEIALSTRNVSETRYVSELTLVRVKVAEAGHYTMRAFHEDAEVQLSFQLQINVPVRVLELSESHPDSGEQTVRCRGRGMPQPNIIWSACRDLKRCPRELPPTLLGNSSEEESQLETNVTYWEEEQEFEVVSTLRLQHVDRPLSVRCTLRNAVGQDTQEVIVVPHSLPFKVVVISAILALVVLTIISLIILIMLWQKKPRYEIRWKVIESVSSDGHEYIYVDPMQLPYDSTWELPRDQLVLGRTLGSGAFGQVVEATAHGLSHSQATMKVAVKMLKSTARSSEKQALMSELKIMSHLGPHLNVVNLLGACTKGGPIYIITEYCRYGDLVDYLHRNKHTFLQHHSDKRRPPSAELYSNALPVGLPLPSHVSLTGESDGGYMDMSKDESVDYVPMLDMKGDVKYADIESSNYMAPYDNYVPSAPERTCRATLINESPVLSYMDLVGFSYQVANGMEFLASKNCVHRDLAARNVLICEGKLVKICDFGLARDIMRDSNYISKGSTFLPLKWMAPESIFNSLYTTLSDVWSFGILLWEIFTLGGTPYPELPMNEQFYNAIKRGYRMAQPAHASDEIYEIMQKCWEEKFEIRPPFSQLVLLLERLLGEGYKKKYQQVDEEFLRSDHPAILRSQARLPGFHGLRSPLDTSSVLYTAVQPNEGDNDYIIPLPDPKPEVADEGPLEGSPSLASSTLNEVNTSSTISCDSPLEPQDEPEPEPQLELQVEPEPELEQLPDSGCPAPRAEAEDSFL
FLT3, sequence (P36888 27-993): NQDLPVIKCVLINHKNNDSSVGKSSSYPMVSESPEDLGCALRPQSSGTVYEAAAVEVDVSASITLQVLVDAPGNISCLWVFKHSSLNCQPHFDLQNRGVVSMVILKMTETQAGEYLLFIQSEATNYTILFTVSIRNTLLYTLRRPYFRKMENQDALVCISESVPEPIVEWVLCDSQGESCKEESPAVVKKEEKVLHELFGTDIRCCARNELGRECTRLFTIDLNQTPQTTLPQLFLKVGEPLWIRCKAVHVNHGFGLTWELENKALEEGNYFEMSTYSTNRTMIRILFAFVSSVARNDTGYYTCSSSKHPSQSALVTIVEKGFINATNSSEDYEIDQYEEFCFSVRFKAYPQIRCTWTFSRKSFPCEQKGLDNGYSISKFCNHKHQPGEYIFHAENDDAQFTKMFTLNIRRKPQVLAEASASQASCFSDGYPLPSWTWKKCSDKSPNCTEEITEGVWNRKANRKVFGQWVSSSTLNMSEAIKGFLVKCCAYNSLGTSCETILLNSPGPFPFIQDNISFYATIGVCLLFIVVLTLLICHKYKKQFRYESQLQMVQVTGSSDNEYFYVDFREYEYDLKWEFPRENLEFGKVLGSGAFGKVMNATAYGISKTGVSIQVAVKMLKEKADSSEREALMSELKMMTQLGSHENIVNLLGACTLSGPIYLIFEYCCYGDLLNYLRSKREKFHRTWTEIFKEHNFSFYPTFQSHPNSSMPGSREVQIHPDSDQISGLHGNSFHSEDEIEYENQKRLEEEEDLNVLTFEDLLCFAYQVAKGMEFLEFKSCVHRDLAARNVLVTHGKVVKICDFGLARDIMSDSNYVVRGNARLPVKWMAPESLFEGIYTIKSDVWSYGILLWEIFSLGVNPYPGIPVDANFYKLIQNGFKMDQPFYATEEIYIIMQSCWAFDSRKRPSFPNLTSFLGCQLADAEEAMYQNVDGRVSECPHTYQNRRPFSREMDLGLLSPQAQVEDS

With `Cc1ccc(NC(=O)c2ccc(CN3CCN(C)CC3)cc2)cc1Nc1nccc(-c2cncc(-c3ccn[nH]3)c2)n1` [Compound 107] the inhibition at 0.5 µM (ARG/Abl2; Table 1, read-out: Percent inhibition ARG/Abl2) was 87%, the inhibition at 0.5 µM (PDGFRa; Table 1) was 59% and the inhibition at 0.5 µM (FLT3; Table 1) was 51%. For the same molecule, the inhibition at 0.5 µM (KIT) was 99%, the inhibition at 0.5 µM (LCK; Table 1) was 95% and the inhibition at 0.5 µM (ABL) was 91%. It also gave an inhibition at 0.5 µM (SRC; Table 1) of 28%, an inhibition at 0.5 µM (FYN; Table 1) of 69% and an inhibition at 0.5 µM (JNK2; Table 1) of 1.7%. It also gave an inhibition at 0.5 µM (FES; Table 1) of 28%, an inhibition at 0.5 µM (LYNA; Table 1) of 93% and an inhibition at 0.5 µM (PDGFRb; Table 1) of 101%. It also gave an inhibition at 0.5 µM (FGR; Table 1) of 82%.

In the case of `Cc1ccc(NC(=O)c2ccc(CN3CCN(C)CC3)cc2)cc1Nc1nccc(-c2cncc(-c3cnn(C)c3)c2)n1` [Compound 8300], the inhibition at 0.5 µM (ARG/Abl2; Table 2, read-out: Percent inhibition Abl2) is reported as 89%, the inhibition at 0.5 µM (YES) is reported as 63% and the inhibition at 0.5 µM (PDGFRa; Table 2) is reported as 99%. The inhibition at 0.5 µM (FLT3; Table 2) was 61%, the inhibition at 0.5 µM (LCK; Table 2) was 97% and the inhibition at 0.5 µM (SRC; Table 2) was 45%. The inhibition at 0.5 µM (FYN; Table 2) was 90%, the inhibition at 0.5 µM (JNK2; Table 2) was 30% and the inhibition at 0.5 µM (JNK1) was 35%. The inhibition at 0.5 µM (FES; Table 2) was 19%, the inhibition at 0.5 µM (LYNA; Table 2) was 108% and the inhibition at 0.5 µM (PDGFRb; Table 2) was 98%. For the same molecule, the inhibition at 0.5 µM (FGR; Table 2) was 81% and the “Percent inhibition CMT” value (CMT) was 88%.
